Source: US20210338557A1, “Oxidized Derivatives of GDF-11 Fragments” (Avon Products, Inc., priority 2019, published 2021)
Where a SMILES comes first, the peptide text is derived from it. [ ]: non-standard residue; d: D form. Met(O2) = CS(=O)(=O)CC[CH](N)C(=O)O; Met(O) = CS(=O)CC[CH](N)C(=O)O

Columns and labels:
explanted skin tissue [1] = experiment: Ex vivo skin explant collagen score (papillary dermis, image analysis); type: cell-based, human; settings: for Collagen score, Mean: days 0, 1, 2, 5, 7
Procedure: (§1) Samples of explanted skin tissue were obtained from an abdominal plasty. Samples (33 in total) were maintained in tissue culture medium at 37° C. in a humid, 5% CO2 atmosphere for the duration of the study.
(§2) The skin tissue explants were then distributed into appropriate controls or treated samples in triplicates. The control received only a vehicle (DMSO), and the treatment samples received vehicle comprising either M(O)2VV or Ac-M(O)2VV at 0.0005%, 0.001%, or 0.01% by weight of the composition. Administration of vehicle or vehicle with the peptide occurred on days 0, 1, 2, 5, and 7.
(§3) Stained tissue sections (in triplicates) were examined for qualitative and semi-qualitative differences between treated and control samples and low and high power using Zeiss Mimax and Midi BF microscope and software system. For HA evaluation, samples were washed and processed with Methylthiazolyldiphenyl-tetrazolium bromide (MTT). MTT is converted to water-insoluble dark blue colored MTT-formazan by mitochondrial dehydrogenases. Subsequently the blue crystals have been solubilized and the color intensity, that is directly proportional to skin vitality, has been measured with a plate reader at a wavelength of 570 nm. For each analyzed skin sample the obtained absorbance value has been normalized upon the weight in grams. Twelve skin suctions were stained with an acian blue stain that dyes acid mucins such as hyaluronan to develop the HA score. Dermal collagen was also measured using a picrosirius red histochemical stain that dyes collagen fibers in purple-red. The papillary dermis was selected for the analysis as thi sis the portion of the dermis more subjected to collagen variation in response to treatment.
(§4) 8-bit grey-scale photomicrographs were captured and transformed from RGB to the standard CIE L*a*b* color space. The L* value for each pixel in the ROI was evaluated using ImageJ software (National Institutes of Health, Bethesda, Md.) with the Color Inspector 3D plug-in. The amount of hyaluron present was evaluated based on the intensity and distribution of blue color in the dermis using an imaging method analogous to that used for procollagen I. Scores reflecting the amount of hyaluronan detected were assigned using an image analysis algorithm proprietary to Cutech Srl. Higher HA scores is indicative of a higher HA content. Similarly, the amount of procollagen I was evaluated based on the intensity and distribution of immunostained procollagen I in the area corresponding to the papillary dermis, just below the epidermis. As above, 8-bit grey-scale photomicrographs were captured and transformed from RGB to the standard CIE L*a*b* color space. The L* value for each pixel in the ROI was evaluated using ImageJ software (National Institutes of Health, Bethesda, Md.) with the Color Inspector 3D plug-in. Scores reflecting the amount of procollagen I detected were assigned using an image analysis algorithm proprietary to Cutech Srl.
Columns marked with “**” were highly significant (p<0.05) with respect to untreated samples and with respect to samples administered vehicle alone (DMSO.

[2] = system: Human dermal fibroblast cells; experiment: Collagen (pro-collagen I) secretion by human dermal fibroblasts, HTRF human pro-collagen I kit; type: cell-based; settings: 48 h, relative to vehicle control
Procedure: (§5) Human dermal fibroblast cells were grown in a 96 well plate in DMEM media (available from Corning, N.Y.) supplemented with 10% Fetal Bovine Serum (FBS) and L-glutamine (0.07×10^5 cells/plate). After reaching about 75% confluence, cells were transferred into DMEM media without FBS and incubated for 4-6 hours. Next, cells were treated with a peptide or prodrug thereof (MVV, Ac-MVV) or peptide derivative or prodrug thereof (M(O)2VV, Ac-M(O)2VV, Ac-M(O)VV) at 0.00001%, 0.0001%, 0.0005%, or 0.001% final concentration in DMEM media without FBS for 48 h. After treatment, the media were collected and cell viability was measured using MTT. The amount of collagen or hyaluronic acid (HA) secreted was tested in the media using an HTRF human pro-collagen I kit or an HTRF HABP kit, respectively (each available from Cisbio Inc., Bedford, Mass.).
(§6) The results for collagen production following administration to the fibroblasts are summarized in Table 14 as percent change of collagen production for each active relative to vehicle control. p values are given with respect to the change in collagen on the fibroblasts with vehicle control administration or MVV administration.

[3] = system: Human dermal fibroblast cells; experiment: Hyaluronic acid (HA) secretion by human dermal fibroblasts, HTRF HABP kit; type: cell-based; settings: 48 h, relative to vehicle control
Procedure: as §5
as §6, with “HA” for “collagen”, “13” for “14”, “with respect to […]” for “MVV”

[4] = system: Human 3D skin EFT400FT tissues; experiment: HA production in full thickness 3D skin cultures, HTRF HABP kit; type: cell-based; settings: topical daily for 3 days, n=6
Procedure: A series of experiments was conducted to assess the effects of peptide derivatives on the production of hyaluronic acid (HA) on full thickness 3D skin cultures. Five different treatment regimens were assessed: (1) 0.01% by weight M(O)2VV in vehicle; (2) 0.002% by weight M(O)2VV in vehicle; (3) 0.01% by weight Ac-M(O)2VV in vehicle; (4) 0.002% by weight Ac-M(O)2VV in vehicle; and (5) vehicle alone (DMSO). Compositions at the indicated weight percentages in DMSO were applied to 3D skin equivalents daily for 3 consecutive days.
Human 3D skin EFT400FT tissues (MatTek, MA) were cultured following the manufacturer's instructions. Each treatment regimen was topically applied to six 3D skin samples. Different 3D skin samples were assigned to one of treatment regimens (1)-(5) as described above, with six skin tissue models allocated to each treatment regimen (i.e., n=6). Following treatment, media were collected and the amount of hyaluronic acid secreted from the cells was measured using a HTRF HABP kit (available from Cisbio Inc., Bedford, Mass.).
The results for HA production are shown in Table 15. p values are given in relation to administration with vehicle control alone or in relation to MVV.

explanted skin tissue [5] = experiment: Ex vivo skin explant HA score (alcian blue stain, image analysis); type: cell-based, human; settings: for HA score, Mean: days 0, 1, 2, 5, 7
Procedure: as §1, §2, §3, §4
Columns marked with “**” were highly significant (p<0.05) with respect to untreated samples and with respect to samples administered vehicle alone (DMSO).

Row | Compound | Collagen score % Change Over DMSO (explanted skin tissue [1]; 5 ppm) [%] | Collagen score % Change Over Untreated (explanted skin tissue [1]; 5 ppm) [%] | Collagen score, Mean (explanted skin tissue [1]; 5 ppm in DMSO) | Collagen score % Change Over DMSO (explanted skin tissue [1]; 10 ppm) [%] | Collagen score % Change Over Untreated (explanted skin tissue [1]; 10 ppm) [%] | Collagen score, Mean (explanted skin tissue [1]; 10 ppm in DMSO) | Collagen score % Change Over DMSO (explanted skin tissue [1]; 100 ppm) [%] | Collagen score % Change Over Untreated (explanted skin tissue [1]; 100 ppm) [%] | Collagen score, Mean (explanted skin tissue [1]; 100 ppm in DMSO) | Collagen % change ([2]; 0.00001 wt %) [%] | Collagen % change ([2]; 0.0001 wt %) [%] | Collagen % change ([2]; 0.0005 wt %) [%] | Collagen % change ([2]; 0.001 wt %) [%] | HA % change ([3]; 0.00001 wt %) [%] | HA % change ([3]; 0.0001 wt %) [%] | HA % change ([3]; 0.0005 wt %) [%] | HA % change ([3]; 0.001 wt %) [%] | % HA change ([4]; 0.002% (20 ppm) in DMSO) [%] | % HA change ([4]; 0.01% (100 ppm) in DMSO) [%] | HA score % Change Over DMSO (explanted skin tissue [5]; 5 ppm) [%] | further results
1 | CC(=O)NC(CCS(C)(=O)=O)C(=O)NC(C(=O)NC(C(=O)O)C(C)C)C(C)C (stereo not drawn) [Ac-M(O)2VV] (Ac-[Met(O2)]-Val-Val-OH; configuration not given here) | 73 | 57 | 61.7 | 75 | 59 | 61.9 | 52 | 35 | 59.6 | 12.29 | 11.29 | −0.56 | 13.65 | 10.33 | 7.31 | 7.90 | 11.04 | 1.386 | 12.47 | −7 | HA score % Change Over Untreated (explanted skin tissue [5]; 5 ppm): −4%; HA score, Mean (explanted skin tissue [5]; 5 ppm in DMSO): 9.5; HA score % Change Over DMSO (explanted skin tissue [5]; 10 ppm): 25%; HA score % Change Over Untreated (explanted skin tissue [5]; 10 ppm): 28%; HA score, Mean (explanted skin tissue [5]; 10 ppm in DMSO): 12.7; HA score % Change Over DMSO (explanted skin tissue [5]; 100 ppm): 9%; HA score % Change Over Untreated (explanted skin tissue [5]; 100 ppm): 12%; HA score, Mean (explanted skin tissue [5]; 100 ppm in DMSO): 11.1
2 | CC(=O)NC(CC[S+](C)[O-])C(=O)NC(C(=O)NC(C(=O)O)C(C)C)C(C)C (stereo not drawn) [Ac-M(O)VV] (Ac-[Met(O)]-Val-Val-OH; configuration not given here) |  |  |  |  |  |  |  |  |  | 7.20 | 4.59 | 14.02 | 13.49 | 17.50 | 16.95 | 17.69 | 21.87 |  |  |  | 
3 | CC(C)C(NC(=O)C(NC(=O)C(N)CCS(C)(=O)=O)C(C)C)C(=O)O (stereo not drawn) [M(O)2VV, methionine sulfone valine valine] (H-[Met(O2)]-Val-Val-OH; configuration not given here) | −7 | −25 | 53.6 | 35 | 18 | 57.9 | 13 | −5 | 55.6 | 5.74 | 12.51 | 1.56 | 6.07 | 14.01 | 17.49 | 10.25 | 19.43 | 6.236 | 10.28 | 18 | HA score % Change Over Untreated (explanted skin tissue [5]; 5 ppm): 21%; HA score, Mean (explanted skin tissue [5]; 5 ppm in DMSO): 12; HA score % Change Over DMSO (explanted skin tissue [5]; 10 ppm): 14%; HA score % Change Over Untreated (explanted skin tissue [5]; 10 ppm): 17%; HA score, Mean (explanted skin tissue [5]; 10 ppm in DMSO): 11.6; HA score % Change Over DMSO (explanted skin tissue [5]; 100 ppm): −4%; HA score % Change Over Untreated (explanted skin tissue [5]; 100 ppm): −1%; HA score, Mean (explanted skin tissue [5]; 100 ppm in DMSO): 9.8
4 | MVV (listed as Homo sapiens) [MW, reference compound] |  |  |  |  |  |  |  |  |  | 7.22 | 10.56 | 31.22 | 6.22 | 5.79 | 1.63 | 3.66 | 9.00 |  |  |  | 
